# Patent EP0166609A2, “Aryl derivatives of heterobicyclic compounds” (THE WELLCOME FOUNDATION LIMITED, priority 1984, dated 1986)
# Tested on: anaesthetised, open-chest beagle dogs
# Test: in vivo inotropic and vasodilatory activity, bolus intravenous injection
# Conditions: for ED30 / ED50: Canis lupus familiaris, bolus intravenous injection; for ED30: read-out: ED30D.B.P. (effective intravenous dose to produce a 30% decrease in diastolic blood pressure); for ED50: read-out: ED50L.V. dP/dt (effective intravenous dose of compound to produce a 50% increase in L.V. dP/dt); for Selectivity ED50L.V. dP/dt / ED30D.B.P. / Tr (duration of inotropic response): intravenous; for Tr (duration of inotropic response): time in which a 50% increase in L.V. dp/dt would return to pre-dose levels
# Protocol: Determination of in vivo Inotropic and Vasodilatory Activity Compounds according to the present invention were tested in vivo in comparison with the compound 2-(2-methoxy-4-methylsulphinylphenyl)imidazo[1,2-a]pyrazine (hereinafter referred to as compound 'X' disclosed in UK patent specification No. 2 132 203 A. The compounds were tested in anaesthetised, open-chest beagle dogs by bolus intravenous injection to produce a dose-related positive inotropic stimulation (as measured by the increase in the maximum rate of change of the left ventricular pressure -,L.V. dp/dt) over the dose range of 0.003 - 3.0 mg/kg. This was accompanied by a dose-related increase in aortic blood flow, and a fall in systemic blood pressure (see Table below). In these preparations, the duration of inotropic response was estimated by measuring the time in which a 50% increase in L.V. dp/dt would return to pre-dose levels. The duration is shown in the table below and for some of the compounds is given as a range. [table]
Compound,ED30,ED50,Selectivity ED50L.V. dP/dt / ED30D.B.P.,Tr (duration of inotropic response)
"COc1cc(OS(C)(=O)=O)ccc1-c1cn2ccnc(OC)c2n1 [Example 4, 8-methoxy-2-(2-methoxy-4-methylsulphonyloxyphenyl)imidazo[1,2-a]pyrazine]",0.06 mg/kg,0.07 mg/kg,1.22,45 to 60 min
"COc1cc(C(C)=O)ccc1-c1cn2ccncc2n1 [Example 7, 2-(2-methoxy-4-acetylphenyl)imidazo[1,2-a]pyrazine]",0.1 mg/kg,0.03 mg/kg,0.30,10 min
"COc1cc([S+](C)[O-])ccc1-c1cn2ccncc2n1 (stereo not drawn) [X, 2-(2-methoxy-4-methylsulphinylphenyl)imidazo[1,2-a]pyrazine, reference compound]",0.028 mg/kg,0.75 mg/kg,26.8,5 min
"COc1cc(C(N)=O)ccc1-c1cn2ccncc2n1 [Example 1, 2-(2-Methoxy-4-carbamoylphenyl)-imidazo[1,2-a]pyrazine]",0.05 mg/kg,0.02 mg/kg,0.4,>30 min
"COc1cc(C(N)=O)ccc1-c1cn2ccnc(OC)c2n1.Cl [Example 5, 2-(2-methoxy-4-carbamoylphenyl)-8-methoxy-imidazo[1,2-a]pyrazine hydrochloride]",0.15 mg/kg,0.06 mg/kg,0.39,30 to 45 min
"COc1cc([S+](C)[O-])ccc1-c1cn2ccnc(OC)c2n1 (stereo not drawn) [Example 3, 8-methoxy-2-(2-methoxy-4-methylsulphinylphenyl)imidazo[1,2-a]pyrazine]",1.17 mg/kg,0.91 mg/kg,0.08,60 min
